Key:
[1] = target: T1, PDGFRalpha(V561D) (Homo sapiens, UniProt P16234, V561D); experiment: PDGFRalpha(V561D) assay; assay type: biochemical; conditions: recombinant human PDGFRalpha aa 550-end, 200 μM ATP, 1.4E-06 means 1.4×10^−6, read-out: Inhibition (IC50) of PDGFRα (V561D)
T1 construct: recombinant human PDGFRalpha, amino acids 550end containing the V561 D mutation; 6His (N)
Method in brief: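 Radiometric filter-binding assay: substrate phosphorylation by recombinant N-His-tagged human PDGFRα 550-end V561D was quenched with 3% phosphoric acid after 40 min at room temperature, then counted.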

[2] = target: T2, c-Kit(V654A) (Homo sapiens, UniProt P10721, V654A); experiment: c-Kit(V654A) assay; assay type: biochemical; conditions: recombinant human c-Kit aa 544-end, 200 μM ATP, 1.4E-06 means 1.4×10^−6, read-out: Inhibition (IC50) of c-KIT (V654A)
T2 construct: amino acids 544-end containing the V654A mutation; GST (N)
T2 sequence (P10721 544-976 V654A): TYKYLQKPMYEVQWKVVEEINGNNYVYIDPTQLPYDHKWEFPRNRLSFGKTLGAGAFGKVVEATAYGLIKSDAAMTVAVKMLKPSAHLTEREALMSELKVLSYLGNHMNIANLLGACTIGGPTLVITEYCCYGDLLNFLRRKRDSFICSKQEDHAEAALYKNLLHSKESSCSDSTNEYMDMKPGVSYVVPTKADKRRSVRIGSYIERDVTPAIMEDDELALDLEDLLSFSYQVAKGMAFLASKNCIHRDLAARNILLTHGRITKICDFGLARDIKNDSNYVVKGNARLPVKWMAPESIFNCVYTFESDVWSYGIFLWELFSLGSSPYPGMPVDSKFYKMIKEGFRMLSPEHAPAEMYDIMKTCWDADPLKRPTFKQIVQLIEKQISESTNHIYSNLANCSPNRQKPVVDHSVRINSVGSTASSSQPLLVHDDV
Method in brief: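 Radiometric filter-binding read-out: substrate 33P incorporation counted by scintillation after P30 filtermat washes in 75 mM phosphoric acid and methanol. Enzyme: N-GST recombinant human c-Kit aa 544-end carrying V654A.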

T1 sequence (P16234 550-1089 V561D): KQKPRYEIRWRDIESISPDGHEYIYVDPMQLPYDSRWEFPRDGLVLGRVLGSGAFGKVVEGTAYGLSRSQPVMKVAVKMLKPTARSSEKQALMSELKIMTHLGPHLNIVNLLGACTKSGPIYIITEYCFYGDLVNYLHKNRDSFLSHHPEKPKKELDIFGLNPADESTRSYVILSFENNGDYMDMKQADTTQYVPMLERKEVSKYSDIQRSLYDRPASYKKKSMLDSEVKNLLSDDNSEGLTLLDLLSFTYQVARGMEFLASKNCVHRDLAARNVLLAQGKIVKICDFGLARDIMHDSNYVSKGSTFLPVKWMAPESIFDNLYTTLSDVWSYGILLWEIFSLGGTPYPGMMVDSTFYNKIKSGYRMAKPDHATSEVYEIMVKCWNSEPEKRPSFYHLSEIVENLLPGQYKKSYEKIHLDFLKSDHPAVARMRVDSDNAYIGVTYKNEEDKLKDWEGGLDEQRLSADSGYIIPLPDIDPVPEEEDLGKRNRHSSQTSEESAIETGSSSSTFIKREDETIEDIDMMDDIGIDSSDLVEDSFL

Row | IC50 [1] [nM] | IC50 [2] [nM] | SMILES
1 | 93 | 68 | CO[C@H]1CCCN(C(=O)c2ccc(-n3cc(-c4cc5cc(F)ccc5[nH]c4=O)nn3)cc2)C1 [A195, 6-fluoro-3-{1-[4-((S)-3-methoxy-piperidine-1-carbonyl)-phenyl]-1H-[1,2,3]triazol-4-yl}-1H-quinolin-2-one]
2 | 46 | 76 | CN1CCC(N(C)C(=O)c2ccc(-n3cc(-c4cc5ccccc5[nH]c4=O)nn3)cc2)CC1 [A59, N-methyl-N-(1-methyl-piperidin-4-yl)-4-[4-(2-oxo-1,2-dihydro-quinolin-3-yl)-[1,2,3]triazol-1-yl]-benzamide]
3 | 35 | 8.6 | CC(=O)OC1CCCN(C(=O)c2ccc(-n3cc(-c4cc5cc(F)ccc5[nH]c4=O)nn3)cc2)C1 (stereo not shown) [A103, acetic acid 1-{4-[4-(6-fluoro-2-oxo-1,2-dihydro-quinolin-3-yl)-[1,2,3]triazol-1-yl]-benzoyl}-piperidin-3-yl ester]
4 | 12 | 6 | CN1CCN(C(=O)c2ccc(-n3cc(-c4cc5c(F)cccc5[nH]c4=O)nn3)cc2)CC1 [A149, 5-fluoro-3-{1-[4-(4-methyl-piperazine-1-carbonyl)-phenyl]-1H-[1,2,3]triazol-4-yl}-1H-quinolin-2-one]
5 | 95 | 49 | O=C(c1ccc(-n2cc(-c3cc4cc(F)ccc4[nH]c3=O)nn2)cc1)N1CCN(C2COC2)CC1 [A230, 6-fluoro-3-{1-[4-(4-oxetan-3-yl-piperazine-1-carbonyl)-phenyl]-1H-[1,2,3]triazol-4-yl}-1H-quinolin-2-one]
6 | 57 | 170 | N#Cc1ccc2cc(-c3cn(-c4ccc(C(=O)N5CCOCC5)cc4)nn3)c(=O)[nH]c2c1 [A177, 3-{1-[4-(morpholine-4-carbonyl)-phenyl]-1H-[1,2,3]triazol-4-yl}-2-oxo-1,2-dihydro-quinoline-7-carbonitrile]
7 | 12 | 51 | O=C(c1ccc(-n2cc(-c3cc4ccccc4[nH]c3=O)nn2)cc1)N1CCOCC1 [A2, 3-{1-[4-(morpholine-4-carbonyl)-phenyl]-1H-[1,2,3]triazol-4-yl}-1H-quinolin-2-one]
8 | 1.3 | 3.9 | CN1CCN(C(=O)Cn2ccc3cc(-n4cc(-c5cc6cc(F)ccc6[nH]c5=O)nn4)ccc32)CC1 [A178, 6-fluoro-3-(1-{1-[2-(4-methyl-piperazin-1-yl)-2-oxo-ethyl]-1H-indol-5-yl}-1H-[1,2,3]triazol-4-yl)-1H-quinolin-2-one]
9 | 3 | 15 | O=C1COCCN1c1ccc(-n2cc(-c3cc4ccccc4[nH]c3=O)nn2)cc1 [A25, 3-{1-[4-(3-oxo-morpholin-4-yl)-phenyl]-1H-[1,2,3]triazol-4-yl}-1H-quinolin-2-one]
10 | 430 | 110 | CCN(CC)CCN1CCN(C(=O)c2ccc(-n3cc(-c4cc5cc(F)c(F)cc5[nH]c4=O)nn3)cc2)CC1 [A189, 3-(1-{4-[4-(2-diethylamino-ethyl)-piperazine-1-carbonyl]-phenyl}-1H-[1,2,3]triazol-4-yl)-6,7-difluoro-1H-quinolin-2-one]
11 | 140 | 20 | CO[C@H]1CCN(C(=O)c2ccc(-n3cc(-c4cc5cc(F)c(F)cc5[nH]c4=O)nn3)cc2)C1 [A114, 6,7-difluoro-3-{1-[4-((S)-3-methoxy-pyrrolidine-1-carbonyl)-phenyl]-1H-[1,2,3]triazol-4-yl}-1H-quinolin-2-one]
12 | 25 | 6.3 | CN(C)C1CCN(C(=O)c2ccc(-n3cc(-c4cc5cc(F)ccc5[nH]c4=O)nn3)cc2)CC1 [A172, 3-{1-[4-(4-dimethylamino-piperidine-1-carbonyl)-phenyl]-1H-[1,2,3]triazol-4-yl}-6-fluoro-1H-quinolin-2-one]
13 | 86 | 11 | O=C(Cn1ccc2cc(-n3cc(-c4cc5c(F)cc(F)cc5[nH]c4=O)nn3)ccc21)N1CCNCC1 [A138, 5,7-difluoro-3-{1-[1-(2-oxo-2-piperazin-1-yl-ethyl)-1H-indol-5-yl]-1H-[1,2,3]triazol-4-yl}-1H-quinolin-2-one]
14 | 0.9 | 9.1 | COCC1CCN(C(=O)c2ccc(-n3cc(-c4cc5cc(F)ccc5[nH]c4=O)nn3)cc2)C1 (stereo not shown) [A106, 6-fluoro-3-{1-[4-(3-methoxymethyl-pyrrolidine-1-carbonyl)-phenyl]-1H-[1,2,3]triazol-4-yl}-1H-quinolin-2-one]
15 | 410 | 350 | COCCOC[C@@H]1CCN(C(=O)c2ccc(-n3cc(-c4cc5cc(F)c(F)cc5[nH]c4=O)nn3)cc2)C1 [A223, 6,7-difluoro-3-(1-{4-[(R)-3-(2-methoxy-ethoxymethyl)-pyrrolidine-1-carbonyl]-phenyl}-1H-[1,2,3]triazol-4-yl)-1H-quinolin-2-one]
16 | 160 | 1300 | COCCN(C)C(=O)c1ccc(-n2cc(-c3cc4cc(F)c(F)cc4[nH]c3=O)nn2)cc1 [A212, 4-[4-(6,7-difluoro-2-oxo-1,2-dihydro-quinolin-3-yl)-[1,2,3]triazol-1-yl]-N-(2-methoxy-ethyl)-N-methyl-benzamide]
17 | 490 | 81 | CO[C@H]1CN(C(=O)c2ccc(-n3cc(-c4cc5cc(F)ccc5[nH]c4=O)nn3)cc2)C[C@H]1OC [A237, 3-{1-[4-((3R,4S)-3,4-dimethoxy-pyrrolidine-1-carbonyl)-phenyl]-1H-[1,2,3]triazol-4-yl}-6-fluoro-1H-quinolin-2-one]
18 | 150 | 24 | O=C(c1ccc(-n2cc(-c3cc4cc(F)c(F)cc4[nH]c3=O)nn2)cc1)N1CCC(N2CCCC2)C1 (stereo not shown) [A104, 3-{1-[4-([1,3′]bipyrrolidinyl-1′-carbonyl)-phenyl]-1H-[1,2,3]triazol-4-yl}-6,7-difluoro-1H-quinolin-2-one]
19 | 33 | 38 | CN1CCC(COc2ccc(-n3cc(-c4cc5ccccc5[nH]c4=O)nn3)cc2)CC1 [A60, 3-{1-[4-(1-methyl-piperidin-4-ylmethoxy)-phenyl]-1H-[1,2,3]triazol-4-yl}-1H-quinolin-2-one]
20 | 1.2 | 31 | CO[C@@H]1C[C@H](CO)N(C(=O)c2ccc(-n3cc(-c4cc5cc(F)ccc5[nH]c4=O)cn3)cc2)C1 [A302, 6-fluoro-3-{1-[4-((2R,4R)-2-hydroxymethyl-4-methoxy-pyrrolidine-1-carbonyl)-phenyl]-1H-pyrazol-4-yl}-1H-quinolin-2-one]
21 | 100 | 71 | CN(C)[C@H]1CCCN(C(=O)c2ccc(-n3cc(-c4cc5cc(F)ccc5[nH]c4=O)nn3)cc2)C1 [A332, 3-{1-[4-((S)-3-dimethylamino-piperidine-1-carbonyl)-phenyl]-1H-[1,2,3]triazol-4-yl}-6-fluoro-1H-quinolin-2-one]
22 | 440 | 260 | CC(=O)N(C)c1ccc(-n2cc(-c3cc4cc(F)c(F)cc4[nH]c3=O)nn2)cc1 [A352, N-{4-[4-(6,7-difluoro-2-oxo-1,2-dihydro-quinolin-3-yl)-[1,2,3]triazol-1-yl]-phenyl}-N-methyl-acetamide]
23 | 4.1 | 40 | O=C(c1ccc(-n2cc(-c3cc4cc(F)ccc4[nH]c3=O)nn2)cc1)N1CCCC1 [A273, 6-fluoro-3-{1-[4-(pyrrolidine-1-carbonyl)-phenyl]-1H-[1,2,3]triazol-4-yl}-1H-quinolin-2-one]

From patent US11939314B2, “Quinolin-2-one derivatives” (MERCK PATENT GMBH, priority 2016, dated 2024)
